Measured values as given in ChEMBL document CHEMBL4680122, “Design, synthesis and biological evaluation of new Axl kinase inhibitors containing 1,3,4-oxadiazole acetamide moiety as novel linker” (Eur J Med Chem, 2020).

What was measured:
[1] = molecular target: T1, Receptor-type tyrosine-protein kinase FLT3 (Homo sapiens, UniProt P36888); test: Inhibition of human N-terminal GST-fused FLT3 cytoplasmic domain (564 to 993 residues) expressed in baculovirus expression system using Srctide as substrate measured after 1 hr by mobility shift assay
T1 sequence (P36888 whole entry): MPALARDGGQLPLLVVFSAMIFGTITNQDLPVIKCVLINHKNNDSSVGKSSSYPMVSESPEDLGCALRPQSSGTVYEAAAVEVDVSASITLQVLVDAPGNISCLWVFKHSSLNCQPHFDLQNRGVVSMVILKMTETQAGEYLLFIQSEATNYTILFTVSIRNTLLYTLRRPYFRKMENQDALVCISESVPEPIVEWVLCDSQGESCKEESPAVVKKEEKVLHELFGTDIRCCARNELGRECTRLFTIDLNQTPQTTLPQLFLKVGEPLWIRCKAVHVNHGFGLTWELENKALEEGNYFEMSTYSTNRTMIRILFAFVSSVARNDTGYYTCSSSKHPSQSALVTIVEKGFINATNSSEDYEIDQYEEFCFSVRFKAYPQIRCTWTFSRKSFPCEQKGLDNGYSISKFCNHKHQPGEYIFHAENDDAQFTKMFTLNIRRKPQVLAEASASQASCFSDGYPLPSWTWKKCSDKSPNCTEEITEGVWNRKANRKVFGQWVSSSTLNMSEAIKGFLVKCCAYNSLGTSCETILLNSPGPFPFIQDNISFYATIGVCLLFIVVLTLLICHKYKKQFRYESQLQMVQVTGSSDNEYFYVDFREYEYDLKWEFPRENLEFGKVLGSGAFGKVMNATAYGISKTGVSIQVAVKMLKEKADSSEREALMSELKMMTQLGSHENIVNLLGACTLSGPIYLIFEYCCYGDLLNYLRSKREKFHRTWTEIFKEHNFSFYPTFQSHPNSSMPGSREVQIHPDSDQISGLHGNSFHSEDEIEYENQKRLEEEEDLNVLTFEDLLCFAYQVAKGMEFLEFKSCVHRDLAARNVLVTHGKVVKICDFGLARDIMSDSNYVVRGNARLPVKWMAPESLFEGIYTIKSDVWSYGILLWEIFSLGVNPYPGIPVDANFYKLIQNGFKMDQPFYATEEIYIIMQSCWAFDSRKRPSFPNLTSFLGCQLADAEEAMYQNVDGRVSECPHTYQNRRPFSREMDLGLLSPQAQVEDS

[2] = molecular target: Mast/stem cell growth factor receptor Kit (Homo sapiens, UniProt P10721); test: Inhibition of human N-terminal GST-tagged c-Kit cytoplasmic domain (544 to end residues) expressed in baculovirus infected Sf21 insect cells using peptide substrate measured after 1 hr by mobility shift assay
Mast/stem cell growth factor receptor Kit, sequence (P10721 whole entry, the tested form may be a part): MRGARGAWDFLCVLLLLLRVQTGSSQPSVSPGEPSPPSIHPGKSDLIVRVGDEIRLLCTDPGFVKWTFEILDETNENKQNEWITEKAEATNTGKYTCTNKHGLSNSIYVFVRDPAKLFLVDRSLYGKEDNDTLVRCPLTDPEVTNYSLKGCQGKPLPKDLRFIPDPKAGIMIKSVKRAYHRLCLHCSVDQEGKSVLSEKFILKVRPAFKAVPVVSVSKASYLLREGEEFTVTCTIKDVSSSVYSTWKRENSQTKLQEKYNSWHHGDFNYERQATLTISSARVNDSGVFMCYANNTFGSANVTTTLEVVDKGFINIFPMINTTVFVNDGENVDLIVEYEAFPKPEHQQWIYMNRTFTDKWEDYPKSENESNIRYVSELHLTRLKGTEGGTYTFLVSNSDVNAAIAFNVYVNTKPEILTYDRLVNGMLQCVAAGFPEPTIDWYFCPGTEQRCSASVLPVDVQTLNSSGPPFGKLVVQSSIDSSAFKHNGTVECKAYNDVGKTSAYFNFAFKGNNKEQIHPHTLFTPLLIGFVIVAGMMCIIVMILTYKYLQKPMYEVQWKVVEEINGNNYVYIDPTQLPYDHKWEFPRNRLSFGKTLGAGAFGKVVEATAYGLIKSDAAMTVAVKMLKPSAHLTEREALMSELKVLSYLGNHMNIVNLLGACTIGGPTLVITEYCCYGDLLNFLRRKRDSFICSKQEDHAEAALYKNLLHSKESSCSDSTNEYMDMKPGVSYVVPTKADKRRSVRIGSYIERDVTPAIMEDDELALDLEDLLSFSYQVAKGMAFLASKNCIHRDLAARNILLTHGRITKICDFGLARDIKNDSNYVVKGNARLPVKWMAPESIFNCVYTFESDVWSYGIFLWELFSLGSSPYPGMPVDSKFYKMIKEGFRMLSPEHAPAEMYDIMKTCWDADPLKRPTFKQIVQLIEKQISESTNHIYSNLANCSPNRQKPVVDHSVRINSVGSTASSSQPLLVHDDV

[3] = molecular target: Vascular endothelial growth factor receptor 2 (Homo sapiens, UniProt P35968); test: Inhibition of human N-terminal GST-fused KDR cytoplasmic domain (790 to 1356 residues) expressed in baculovirus expression system using CSKtide as substrate measured after 1 hr by mobility shift assay
Vascular endothelial growth factor receptor 2, sequence (P35968 whole entry, the tested form may be a part): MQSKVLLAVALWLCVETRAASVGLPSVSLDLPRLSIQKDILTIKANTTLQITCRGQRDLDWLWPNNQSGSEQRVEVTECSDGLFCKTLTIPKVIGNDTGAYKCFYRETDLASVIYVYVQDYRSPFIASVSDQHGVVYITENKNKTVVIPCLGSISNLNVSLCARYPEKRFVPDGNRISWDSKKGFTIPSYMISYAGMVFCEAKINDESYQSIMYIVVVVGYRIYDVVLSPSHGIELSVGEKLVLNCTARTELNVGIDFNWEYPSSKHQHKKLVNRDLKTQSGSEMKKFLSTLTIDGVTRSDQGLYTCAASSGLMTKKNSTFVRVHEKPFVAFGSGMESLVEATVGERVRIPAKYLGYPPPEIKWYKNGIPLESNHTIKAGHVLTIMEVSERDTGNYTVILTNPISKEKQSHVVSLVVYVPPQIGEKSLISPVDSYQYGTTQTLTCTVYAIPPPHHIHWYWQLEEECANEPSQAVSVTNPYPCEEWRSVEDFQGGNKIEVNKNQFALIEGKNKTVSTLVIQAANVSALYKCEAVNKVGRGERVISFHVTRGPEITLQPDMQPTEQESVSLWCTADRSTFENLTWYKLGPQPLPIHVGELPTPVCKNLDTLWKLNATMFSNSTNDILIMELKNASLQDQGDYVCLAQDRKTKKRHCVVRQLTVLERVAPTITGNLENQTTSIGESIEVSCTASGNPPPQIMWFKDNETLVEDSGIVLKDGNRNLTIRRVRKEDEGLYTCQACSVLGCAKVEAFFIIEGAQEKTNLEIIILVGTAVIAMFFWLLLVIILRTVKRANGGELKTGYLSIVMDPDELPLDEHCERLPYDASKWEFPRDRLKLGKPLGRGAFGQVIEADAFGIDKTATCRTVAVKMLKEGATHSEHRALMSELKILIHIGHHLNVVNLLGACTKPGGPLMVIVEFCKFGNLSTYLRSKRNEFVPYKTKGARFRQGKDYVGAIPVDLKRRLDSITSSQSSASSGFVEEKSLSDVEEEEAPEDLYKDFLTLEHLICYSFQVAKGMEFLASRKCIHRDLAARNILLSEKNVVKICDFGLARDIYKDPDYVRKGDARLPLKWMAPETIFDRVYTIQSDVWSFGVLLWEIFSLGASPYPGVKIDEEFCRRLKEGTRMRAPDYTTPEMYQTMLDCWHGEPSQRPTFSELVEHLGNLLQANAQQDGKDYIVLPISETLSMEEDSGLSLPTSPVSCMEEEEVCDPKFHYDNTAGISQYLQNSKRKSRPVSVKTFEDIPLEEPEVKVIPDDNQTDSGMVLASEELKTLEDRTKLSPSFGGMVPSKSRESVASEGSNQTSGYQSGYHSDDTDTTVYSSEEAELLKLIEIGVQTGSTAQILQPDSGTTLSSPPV

MCF7 = test: Antiproliferative activity against human MCF7 cells measured after 72 hrs by MTT assay; type: functional, cell-based; conditions: MCF7, 72 h
[4] = molecular target: T2, Tyrosine-protein kinase Mer (Homo sapiens, UniProt Q12866); test: Inhibition of MER (unknown origin)
T2 sequence (Q12866 whole entry): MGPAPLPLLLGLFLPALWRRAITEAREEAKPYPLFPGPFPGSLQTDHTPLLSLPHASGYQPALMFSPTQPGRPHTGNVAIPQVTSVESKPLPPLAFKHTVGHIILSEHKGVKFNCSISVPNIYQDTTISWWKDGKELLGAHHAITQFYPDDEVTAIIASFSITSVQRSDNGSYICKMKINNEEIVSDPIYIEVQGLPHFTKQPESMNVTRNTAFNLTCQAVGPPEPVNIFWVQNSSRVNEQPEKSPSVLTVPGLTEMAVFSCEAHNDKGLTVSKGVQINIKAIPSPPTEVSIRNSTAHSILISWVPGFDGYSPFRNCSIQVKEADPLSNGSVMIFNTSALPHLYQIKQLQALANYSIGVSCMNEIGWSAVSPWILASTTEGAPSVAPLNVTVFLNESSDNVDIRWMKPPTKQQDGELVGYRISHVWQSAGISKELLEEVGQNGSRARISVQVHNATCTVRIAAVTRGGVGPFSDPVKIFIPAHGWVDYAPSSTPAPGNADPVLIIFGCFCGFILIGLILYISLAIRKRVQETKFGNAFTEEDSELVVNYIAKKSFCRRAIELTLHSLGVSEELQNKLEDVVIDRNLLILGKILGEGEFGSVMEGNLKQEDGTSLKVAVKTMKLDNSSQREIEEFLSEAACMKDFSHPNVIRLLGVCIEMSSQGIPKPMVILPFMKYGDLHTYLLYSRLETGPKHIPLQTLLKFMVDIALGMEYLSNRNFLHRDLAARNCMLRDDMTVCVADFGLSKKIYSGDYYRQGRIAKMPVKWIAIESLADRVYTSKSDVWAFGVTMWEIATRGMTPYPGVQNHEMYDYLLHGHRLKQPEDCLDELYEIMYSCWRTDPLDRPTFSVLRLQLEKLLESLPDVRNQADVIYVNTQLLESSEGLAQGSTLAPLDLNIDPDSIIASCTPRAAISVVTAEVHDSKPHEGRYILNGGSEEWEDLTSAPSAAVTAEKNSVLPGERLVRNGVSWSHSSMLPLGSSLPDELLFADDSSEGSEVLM

[5] = molecular target: Hepatocyte growth factor receptor (Homo sapiens, UniProt P08581); test: Inhibition of human N-terminal GST-fused c-MET cytoplasmic domain (956 to 1390 residues) expressed in baculovirus expression system using Srctide as substrate measured after 1 hr by mobility shift assay
Hepatocyte growth factor receptor, sequence (P08581 whole entry, the tested form may be a part): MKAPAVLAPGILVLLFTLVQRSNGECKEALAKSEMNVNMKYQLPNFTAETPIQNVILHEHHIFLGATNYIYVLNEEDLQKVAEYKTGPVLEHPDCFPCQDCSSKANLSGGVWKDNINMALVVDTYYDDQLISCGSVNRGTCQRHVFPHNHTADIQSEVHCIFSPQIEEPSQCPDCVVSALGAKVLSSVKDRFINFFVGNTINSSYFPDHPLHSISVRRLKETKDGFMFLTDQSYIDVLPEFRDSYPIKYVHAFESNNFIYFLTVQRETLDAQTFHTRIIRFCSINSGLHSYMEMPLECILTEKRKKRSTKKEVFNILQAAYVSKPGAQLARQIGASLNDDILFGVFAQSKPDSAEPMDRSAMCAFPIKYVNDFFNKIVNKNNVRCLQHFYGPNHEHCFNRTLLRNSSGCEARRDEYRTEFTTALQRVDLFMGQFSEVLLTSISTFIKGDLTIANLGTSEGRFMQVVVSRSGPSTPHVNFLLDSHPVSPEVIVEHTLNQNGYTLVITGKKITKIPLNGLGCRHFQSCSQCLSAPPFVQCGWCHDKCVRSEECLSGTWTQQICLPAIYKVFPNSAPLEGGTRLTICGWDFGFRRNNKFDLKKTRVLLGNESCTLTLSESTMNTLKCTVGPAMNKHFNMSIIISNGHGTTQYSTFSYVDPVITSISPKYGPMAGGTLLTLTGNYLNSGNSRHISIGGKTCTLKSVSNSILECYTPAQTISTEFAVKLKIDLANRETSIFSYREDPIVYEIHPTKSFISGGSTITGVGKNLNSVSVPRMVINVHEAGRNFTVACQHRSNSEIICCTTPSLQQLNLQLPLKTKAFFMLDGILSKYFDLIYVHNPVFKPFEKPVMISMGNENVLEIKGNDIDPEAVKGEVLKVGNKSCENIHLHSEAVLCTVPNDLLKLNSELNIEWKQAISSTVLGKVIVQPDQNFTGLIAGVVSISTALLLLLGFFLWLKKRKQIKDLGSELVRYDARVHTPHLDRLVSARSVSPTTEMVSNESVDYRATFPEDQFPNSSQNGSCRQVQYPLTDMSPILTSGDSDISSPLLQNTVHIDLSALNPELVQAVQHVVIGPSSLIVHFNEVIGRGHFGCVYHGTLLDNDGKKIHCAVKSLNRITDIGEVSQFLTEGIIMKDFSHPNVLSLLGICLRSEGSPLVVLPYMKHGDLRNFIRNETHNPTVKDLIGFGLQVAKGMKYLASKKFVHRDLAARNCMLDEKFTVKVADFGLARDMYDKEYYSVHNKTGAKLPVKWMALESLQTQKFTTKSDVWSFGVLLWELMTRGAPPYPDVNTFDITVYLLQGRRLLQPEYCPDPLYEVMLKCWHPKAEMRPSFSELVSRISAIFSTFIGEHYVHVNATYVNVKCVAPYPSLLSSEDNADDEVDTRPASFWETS

PC-3 = test: cells; conditions: Homo sapiens, PC-3, 72 h
Description: Antiproliferative activity against human PC-3 cells measured after 72 hrs by MTT assay

[6] = molecular target: Platelet-derived growth factor receptor beta (Homo sapiens, UniProt P09619); test: Inhibition of human His-tagged PDGFRB cytoplasmic domain expressed in baculovirus expression system using peptide substrate measured after 1 hr by mobility shift assay
Platelet-derived growth factor receptor beta, sequence (P09619 whole entry, the tested form may be a part): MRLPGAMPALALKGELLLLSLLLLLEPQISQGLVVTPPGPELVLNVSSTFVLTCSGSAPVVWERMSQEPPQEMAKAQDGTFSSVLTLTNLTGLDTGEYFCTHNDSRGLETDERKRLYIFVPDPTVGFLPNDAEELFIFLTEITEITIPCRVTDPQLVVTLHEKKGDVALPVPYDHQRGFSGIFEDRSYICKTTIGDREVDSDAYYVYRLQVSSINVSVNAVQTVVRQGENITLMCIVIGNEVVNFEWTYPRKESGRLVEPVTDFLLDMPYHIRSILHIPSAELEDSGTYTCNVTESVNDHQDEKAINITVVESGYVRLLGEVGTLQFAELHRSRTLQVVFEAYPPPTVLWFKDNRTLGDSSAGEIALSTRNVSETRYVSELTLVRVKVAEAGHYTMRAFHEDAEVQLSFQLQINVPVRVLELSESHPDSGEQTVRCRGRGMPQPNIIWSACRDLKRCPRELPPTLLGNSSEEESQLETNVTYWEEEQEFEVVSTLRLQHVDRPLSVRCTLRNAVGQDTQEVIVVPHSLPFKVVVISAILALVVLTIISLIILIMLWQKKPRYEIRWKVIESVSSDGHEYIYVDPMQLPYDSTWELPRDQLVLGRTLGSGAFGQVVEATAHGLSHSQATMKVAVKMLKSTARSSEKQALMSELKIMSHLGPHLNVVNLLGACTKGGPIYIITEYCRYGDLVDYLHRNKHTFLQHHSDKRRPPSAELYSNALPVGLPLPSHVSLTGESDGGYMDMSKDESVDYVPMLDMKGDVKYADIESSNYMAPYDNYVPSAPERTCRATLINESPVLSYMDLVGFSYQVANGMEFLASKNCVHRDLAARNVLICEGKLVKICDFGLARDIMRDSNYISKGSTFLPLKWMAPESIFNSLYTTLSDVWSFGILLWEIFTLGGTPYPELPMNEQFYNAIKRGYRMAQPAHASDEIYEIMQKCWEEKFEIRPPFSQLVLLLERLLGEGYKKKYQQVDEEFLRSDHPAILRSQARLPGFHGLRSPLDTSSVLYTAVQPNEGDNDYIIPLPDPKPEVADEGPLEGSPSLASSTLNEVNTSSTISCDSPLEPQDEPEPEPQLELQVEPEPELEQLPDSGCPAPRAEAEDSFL

A549 = test: cells; conditions: Homo sapiens, A549, 72 h
Description: Antiproliferative activity against human A549 cells measured after 72 hrs by MTT assay

HT-29 = test: Antiproliferative activity against human HT-29 cells measured after 72 hrs by MTT assay; conditions: HT-29, 72 h

IC50 [1]: > 200 nM
IC50 [2]: 47 nM
IC50 [3]: 40 nM
IC50 (MCF7): 1000 nM
IC50 [4]: > 200 nM
IC50 [5]: 62 nM
IC50 (PC-3): 530 nM
IC50 [6]: > 200 nM
IC50 (A549): 32 nM
IC50 (HT-29): 1460 nM
Structure (SMILES): COc1cc2c(Oc3ccc(NC(=O)C(C)c4nnc(-c5ccc(F)cc5)o4)cc3F)ccnc2cc1OCCCN1CCC(C)CC1 (stereo not given)
